The record followed here is ChEMBL document CHEMBL4513138, “CO-ADD screening of University of Mosul (Iraq) compounds”.

One test deals with Staphylococcus aureus. Kind of test: microbe, parasite or virus in culture. As to conditions: ATCC 43300, 18 h, ASSAY_TEST Inhibition of Bacterial Growth, detection method Absorption (OD600), MEDIA CAMHB, plate type 384well, NBS, CORNING #3640.
A further test deals with Candida albicans. Description: microbe, parasite or virus in culture. As to conditions: ATCC 90028, ASSAY_TEST Inhibition of Fungal Growth, detection method Absorption (OD530), plate type 384well, NBS, CORNING #3640.
For a further test, the system named is Acinetobacter baumannii. Kind of test: microbe, parasite or virus in culture. As to conditions: ATCC 19606, 18 h, ASSAY_TEST Inhibition of Bacterial Growth, detection method Absorption (OD600), MEDIA CAMHB, plate type 384well, NBS, CORNING #3640.
In a further test the test system is Klebsiella pneumoniae. Kind of test: microbe, parasite or virus in culture. As to conditions: ATCC 700603, 18 h, ASSAY_TEST Inhibition of Bacterial Growth, detection method Absorption (OD600), MEDIA CAMHB, plate type 384well, NBS, CORNING #3640.
For a further test, the system named is Escherichia coli. Description: microbe, parasite or virus in culture. As to conditions: ATCC 25922, 18 h, ASSAY_TEST Inhibition of Bacterial Growth, detection method Absorption (OD600), MEDIA CAMHB, plate type 384well, NBS, CORNING #3640.
In another test the test system is Pseudomonas aeruginosa. Description: microbe, parasite or virus in culture. Conditions: ATCC 27853, 18 h, ASSAY_TEST Inhibition of Bacterial Growth, detection method Absorption (OD600), MEDIA CAMHB, plate type 384well, NBS, CORNING #3640.
The test system of another test is HEK293. Kind of test: cells. Conditions: Homo sapiens, ATCC CRL1573, HEK293; ASSAY_TEST Inhibition of Cell Viability; detection method Resazurin; Fluorescence (ex560/em590); MEDIA DMEM with 10% FBS; plate type 384well; TC; CORNING #3712; time 18 hr. Type of test: functional.

Description for Acinetobacter baumannii: Antibacterial activity against Acinetobacter baumannii ATCC 19606 (CO-ADD:GN_034); MIC in CAMBH media using NBS plates, by OD600
Description for Candida albicans: Antifungal activity against Candida albicans ATCC 90028 (CO-ADD:FG_001); MIC in YNB media using NBS plates, by OD630
Description for Cryptococcus neoformans: Antifungal activity against Cryptococcus neoformans H99 ATCC 208821 (CO-ADD:FG_002); MIC in YNB media using NBS plates, by Resazurin OD(600-570)
Description for Escherichia coli: Antibacterial activity against Escherichia coli ATCC 25922 (CO-ADD:GN_001); MIC in CAMBH media using NBS plates, by OD(600)
Description for Klebsiella pneumoniae: Antibacterial activity against Klebsiella pneumoniae MDR ATCC 70063 (CO-ADD:GN_003); MIC in CAMBH media using NBS plates, by OD(600)
Description for Pseudomonas aeruginosa: Antibacterial activity against Pseudomonas aeruginosa ATCC 27853 (CO-ADD:GN_042); MIC in CAMBH media using NBS plates, by OD(600)
Description for Staphylococcus aureus: Antibacterial activity against Staphylococcus aureus MRSA ATCC 43300 (CO-ADD:GP_020); MIC in CAMBH media, using NBS plates, by OD(600)

As for `CC1COc2c(N3CCN(C)CC3)c(F)cc3c(=O)c(C(=O)Nc4ccc(-c5n[nH]c(=S)o5)cc4)cn1c23.Cl` (configuration not stated), the MIC in the test on Staphylococcus aureus is at most 0.25 µg/mL; against Candida albicans it was above 32 µg/mL; against Acinetobacter baumannii it was 0.5 µg/mL; in the test with Klebsiella pneumoniae it was at most 0.25 µg/mL; in the test on Escherichia coli it was at most 0.25 µg/mL; with Pseudomonas aeruginosa, at most 0.25 µg/mL. The MIC in the test on Cryptococcus neoformans is above 32 µg/mL. The CC50 – broadly, the concentration at which the toxic effect on the cells reaches its halfway point – with HEK293 was above 32 µg/mL.
For the compound `Cl.O=C(Nc1ccc(-c2n[nH]c(=S)o2)cc1)c1cn(C2CC2)c2cc(N3CCNCC3)c(F)cc2c1=O`, the MIC against Staphylococcus aureus was 32 µg/mL; with Candida albicans, above 32 µg/mL; with Acinetobacter baumannii, 32 µg/mL; in the test with Klebsiella pneumoniae, 32 µg/mL; in the test on Escherichia coli, 4 µg/mL; against Pseudomonas aeruginosa it was 32 µg/mL. The compound further displayed an MIC with Cryptococcus neoformans above 32 µg/mL. In the test on HEK293, this compound displayed a CC50 of 17.8 µg/mL.
Consider `CC(O)C1C(=O)N2C(C(=O)Nc3ccc(-c4n[nH]c(=S)o4)cc3)=C(SC3CNC(C(=O)N(C)C)C3)C(C)C12.Cl` (configuration not stated), for which the MIC against Staphylococcus aureus, in the test on Candida albicans, against Acinetobacter baumannii, with Klebsiella pneumoniae, in the test on Escherichia coli and with Pseudomonas aeruginosa was above 32 µg/mL each time. In addition, the MIC with Cryptococcus neoformans was above 32 µg/mL. In addition, the CC50 in the test with HEK293 was above 32 µg/mL.
With `COc1c(N2CC3CCCNC3C2)c(F)cc2c(=O)c(C(=O)Nc3ccc(-c4n[nH]c(=S)o4)cc3)cn(C3CC3)c12.Cl` (configuration not stated), the MIC in the test on Staphylococcus aureus is at most 0.25 µg/mL; with Candida albicans, above 32 µg/mL; against Acinetobacter baumannii, at most 0.25 µg/mL; against Klebsiella pneumoniae, at most 0.25 µg/mL; in the test with Escherichia coli, at most 0.25 µg/mL; against Pseudomonas aeruginosa, 4 µg/mL. This compound also had an MIC in the test on Cryptococcus neoformans above 32 µg/mL. For the same compound, in the test with HEK293, the CC50 was determined as 6.76 µg/mL.
